In patent US4436751A, “Nitrobenzyl monates antibacterial compounds” (Beecham Group Limited, priority 1980, dated 1984):
Converted amounts (≈) assume the structure as drawn. Read-outs that look alike come from different tables or passages of the source.

Experiments:
Type in all cases: cell-based
M. suipneumoniae JF 435 = experiment: Anti-mycoplasmal MIC in vitro, Friis broth agarose (Table 1); details: Mesomycoplasma hyopneumoniae, JF435, 144 h
M. suipneumoniae HR(2) = experiment: as above; details: Mesomycoplasma hyopneumoniae, 144 h
[1] = tested on: M. suipneumoniae PW/C/210; experiment: as above; details: Mesomycoplasma hyopneumoniae, 144 h
M. suipneumoniae OCD 1 = experiment: as above; details: Mesomycoplasma hyopneumoniae, OCD1, 144 h
[2] = tested on: M. suipneumoniae ATCC 25095; experiment: as above; details: Mesomycoplasma hyopneumoniae, ATCC25095, 144 h
[3] = tested on: M. suipneumoniae NCTC 10110; experiment: as above; details: Mesomycoplasma hyopneumoniae, NCTC10110, 144 h
M. hyorhinis ATCC 25021 = experiment: as above; details: Mesomycoplasma hyorhinis, ATCC25021, 144 h
[4] = tested on: M. hyosynoviae ATOC 25591; experiment: as above; details: 144 h
M. bovis RCTC 10131 = experiment: microbe, parasite or virus in culture; details: RCTC10131, 144 h
M. pneumoniae ATCC 15492 = experiment: Anti-mycoplasmal MIC in vitro, Friis broth agarose (Table 1); details: Mycoplasmoides pneumoniae, ATCC15492, 144 h
E. Coli E1 = experiment: Veterinary bacteria MIC, Diagnostic Sensitivity Test Agar (Table 2); details: Escherichia coli
Method: The values were determined using a two fold serial dilutions in Diagnostic Sensitivity Test Agar with an inoculum of 10^4 organisms and incubation for 18 hours at 37° C.

Bacillus subtilis 6633 = experiment: Human bacteria MIC, nutrient agar with chocolated horse blood (Table 3)
Method: (§1) The values were determined by serial dilutions in nutrient agar with 5% chocolated horse blood after incubations for 18 hours at 37° C.

[5] = tested on: Corynebacterium xerosis 9755; experiment: as above
Method: as §1

E. Coli NCTC 10418 = experiment: as above; details: Escherichia coli
Method: as §1

E. coli ESS = experiment: as above; details: Escherichia coli; E. coli ESS; nutrient agar 5% chocolated horse blood, 18 hours 37° C.; read-out: MIC
Method: as §1

[6] = tested on: Haemophilus influenzae Q1; experiment: as above
Method: as §1

K. aerogenes A = experiment: as above; details: Klebsiella aerogenes
Method: as §1

[7] = tested on: Neisseria catarrhalis 1502; experiment: as above
Method: as §1

P. mirabilis 889 = experiment: as above
Method: as §1

[8] = tested on: Pasteurella multocida 1633; experiment: as above; details: Pasteurella multocida 1633; nutrient agar 5% chocolated horse blood, 18 hours 37° C.; read-out: MIC
Method: as §1

[9] = tested on: Ps. aeruginosa NCTC 10662; experiment: as above; details: Pseudomonas aeruginosa
Method: as §1

Sarcina lutea 8340 = experiment: as above
Method: as §1

Staph. aureus Oxford = experiment: as above; details: Staphylococcus aureus; Staph. aureus Oxford; nutrient agar 5% chocolated horse blood, 18 hours 37° C.; read-out: MIC
Method: as §1

Staph. aureus Russell = experiment: as above; details: Staphylococcus aureus; Staph. aureus Russell; nutrient agar 5% chocolated horse blood, 18 hours 37° C.; read-out: MIC
Method: as §1

Staph. aureus W2827 = experiment: as above; details: Staphylococcus aureus; Staph. aureus W2827; nutrient agar 5% chocolated horse blood, 18 hours 37° C.; read-out: MIC
Method: as §1

Strep. faecalis 1 = experiment: as above
Method: as §1

[10] = tested on: Strep. pyogenes R80/421-A; experiment: as above; details: Streptococcus pyogenes
Method: as §1

[11] = M. pneumoniae ATCC 15492, in vitro, 6 days 37° C., read-out: MIC
[12] = Haemophilus influenzae, Q1, 18 h
[13] = Neisseria catarrhalis 1502, nutrient agar 5% chocolated horse blood, 18 hours 37° C., read-out: MIC
[14] = M. suipneumoniae JF 435, in vitro, 6 days 37° C., read-out: MIC
[15] = M. suipneumoniae HR(2), in vitro, 6 days 37° C., read-out: MIC
[16] = M. suipneumoniae PW/C/210, in vitro, 6 days 37° C., read-out: MIC
[17] = M. suipneumoniae OCD 1, in vitro, 6 days 37° C., read-out: MIC
[18] = M. hyorhinis ATCC 25021, in vitro, 6 days 37° C., read-out: MIC
[19] = M. hyosynoviae ATOC 25591, in vitro, 6 days 37° C., read-out: MIC
[20] = E. Coli E1, DST Agar, 10^4 organisms, 18 hours 37° C., read-out: MIC
[21] = Corynebacterium xerosis 9755, nutrient agar 5% chocolated horse blood, 18 hours 37° C., read-out: MIC
[22] = NCTC10418, E. coli NCTC 10418, nutrient agar 5% chocolated horse blood, 18 hours 37° C., read-out: MIC
[23] = K. aerogenes A, nutrient agar 5% chocolated horse blood, 18 hours 37° C., read-out: MIC
[24] = Proteus mirabilis, P. mirabilis 889, nutrient agar 5% chocolated horse blood, 18 hours 37° C., read-out: MIC
[25] = NCTC10662, Ps. aeruginosa NCTC 10662, nutrient agar 5% chocolated horse blood, 18 hours 37° C., read-out: MIC
[26] = Micrococcus luteus, Sarcina lutea 8340, nutrient agar 5% chocolated horse blood, 18 hours 37° C., read-out: MIC
[27] = Enterococcus faecalis, Strep. faecalis 1, nutrient agar 5% chocolated horse blood, 18 hours 37° C., read-out: MIC

Structure (SMILES)	MIC [2]	MIC [3]	MIC (M. bovis RCTC 10131)	MIC (M. pneumoniae ATCC 15492; [11])	MIC (Bacillus subtilis 6633; Bacillus subtilis, 6633, 18 h)	MIC (E. coli ESS)	MIC [6, 12]	MIC [7, 13]	MIC [8]	MIC (Staph. aureus Oxford)	MIC (Staph. aureus Russell)	MIC (Staph. aureus W2827)	MIC ([10]; R80/421A, 18 h)	MIC (M. suipneumoniae JF 435; [14])	MIC (M. suipneumoniae HR(2); [15])	MIC [1, 16]	MIC (M. suipneumoniae OCD 1; [17])	MIC (M. hyorhinis ATCC 25021; [18])	MIC [4, 19]	MIC (E. Coli E1; [20])	also measured
C/C(=C\C(=O)OCc1ccccc1[N+](=O)[O-])CC1OCC(CC2OC2C(C)C(C)O)C(O)C1O (stereo not drawn) [C, O--nitrobenzyl monate A, reference compound]	0.25 µg/mL (≈ 0.521 µM)	0.5 µg/mL (≈ 1.04 µM)	≤ 0.01 µg/mL	5 µg/mL (≈ 10.4 µM)	2.5 µg/mL (≈ 5.21 µM)	2.5 µg/mL (≈ 5.21 µM)	0.5 µg/mL (≈ 1.04 µM)	1 µg/mL (≈ 2.09 µM)	2.5 µg/mL (≈ 5.21 µM)	2.5 µg/mL (≈ 5.21 µM)	2.5 µg/mL (≈ 5.21 µM)	5 µg/mL (≈ 10.4 µM)	0.5 µg/mL (≈ 1.04 µM)	–	–	–	–	–	–	–	MIC (M. suipneumoniae JF 435): 0.5 µg/mL (≈ 1.04 µM); MIC (M. suipneumoniae HR(2)): 0.5 µg/mL (≈ 1.04 µM); MIC [1]: 0.25 µg/mL (≈ 0.521 µM); MIC (M. suipneumoniae OCD 1): 0.5 µg/mL (≈ 1.04 µM); MIC (M. hyorhinis ATCC 25021): 0.25 µg/mL (≈ 0.521 µM); MIC [4]: 0.25 µg/mL (≈ 0.521 µM); MIC (E. Coli E1; 18 h): > 80 µg/mL; MIC ([5]; Corynebacterium xerosis, 9755, 18 h): > 100 µg/mL; MIC (E. Coli NCTC 10418; NCTC10418, 18 h): > 100 µg/mL; MIC (K. aerogenes A; 18 h): > 100 µg/mL; MIC (P. mirabilis 889; Proteus mirabilis, 889, 18 h): > 100 µg/mL; MIC ([9]; NCTC10662, 18 h): > 100 µg/mL; MIC (Sarcina lutea 8340; Micrococcus luteus, 8340, 18 h): > 100 µg/mL; MIC (Strep. faecalis 1; Enterococcus faecalis, 1, 18 h): > 100 µg/mL
C/C(=C\C(=O)OCc1cccc([N+](=O)[O-])c1)CC1OCC(CC2OC2C(C)C(C)O)C(O)C1O (stereo not drawn) [Example 2, m-nitrobenzyl monate A]	0.025 µg/mL (≈ 0.0521 µM)	0.025 µg/mL (≈ 0.0521 µM)	≤ 0.01 µg/mL	1 µg/mL (≈ 2.09 µM)	–	5 µg/mL (≈ 10.4 µM)	–	2.5 µg/mL (≈ 5.21 µM)	10 µg/mL (≈ 20.9 µM)	10 µg/mL (≈ 20.9 µM)	10 µg/mL (≈ 20.9 µM)	25 µg/mL (≈ 52.1 µM)	–	0.025 µg/mL (≈ 0.0521 µM)	0.025 µg/mL (≈ 0.0521 µM)	≤ 0.01 µg/mL	0.025 µg/mL (≈ 0.0521 µM)	≤ 0.01 µg/mL	0.025 µg/mL (≈ 0.0521 µM)	40 µg/mL (≈ 83.4 µM)	MIC (Bacillus subtilis 6633; Bacillus subtilis 6633, nutrient agar 5% chocolated horse blood, 18 hours 37° C., read-out: MIC): 5 µg/mL (≈ 10.4 µM); MIC [5, 21]: > 100 µg/mL; MIC (E. Coli NCTC 10418; [22]): > 100 µg/mL; MIC ([6]; Haemophilus influenzae Q1, nutrient agar 5% chocolated horse blood, 18 hours 37° C., read-out: MIC): 2.5 µg/mL (≈ 5.21 µM); MIC (K. aerogenes A; [23]): > 100 µg/mL; MIC (P. mirabilis 889; [24]): > 100 µg/mL; MIC [9, 25]: > 100 µg/mL; MIC (Sarcina lutea 8340; [26]): > 100 µg/mL; MIC (Strep. faecalis 1; [27]): > 100 µg/mL; MIC ([10]; Strep. pyogenes R80/421-A, nutrient agar 5% chocolated horse blood, 18 hours 37° C., read-out: MIC): 2.5 µg/mL (≈ 5.21 µM)
C/C(=C\C(=O)OC(C)c1cccc([N+](=O)[O-])c1)CC1OCC(CC2OC2C(C)C(C)O)C(O)C1O (stereo not drawn) [Example 3, 1-(m-nitrophenyl)ethyl monate A]	–	–	0.025 µg/mL (≈ 0.0507 µM)	–	1 µg/mL (≈ 2.03 µM)	10 µg/mL (≈ 20.3 µM)	1 µg/mL (≈ 2.03 µM)	–	25 µg/mL (≈ 50.7 µM)	2.5 µg/mL (≈ 5.07 µM)	2.5 µg/mL (≈ 5.07 µM)	5 µg/mL (≈ 10.1 µM)	1 µg/mL (≈ 2.03 µM)	0.25 µg/mL (≈ 0.507 µM)	0.25 µg/mL (≈ 0.507 µM)	0.1 µg/mL (≈ 0.203 µM)	0.25 µg/mL (≈ 0.507 µM)	0.1 µg/mL (≈ 0.203 µM)	0.25 µg/mL (≈ 0.507 µM)	> 80 µg/mL	MIC ([2]; M. suipneumoniae ATCC 25095, in vitro, 6 days 37° C., read-out: MIC): 0.1 µg/mL (≈ 0.203 µM); MIC ([3]; M. suipneumoniae NCTC 10110, in vitro, 6 days 37° C., read-out: MIC): 0.25 µg/mL (≈ 0.507 µM); MIC (M. pneumoniae ATCC 15492): 5 µg/mL (≈ 10.1 µM); MIC [5, 21]: > 100 µg/mL; MIC (E. Coli NCTC 10418; [22]): > 100 µg/mL; MIC (K. aerogenes A; [23]): > 100 µg/mL; MIC ([7]; Neisseria, 1502, 18 h): 1 µg/mL (≈ 2.03 µM); MIC (P. mirabilis 889; [24]): > 100 µg/mL; MIC [9, 25]: > 100 µg/mL; MIC (Sarcina lutea 8340; [26]): > 100 µg/mL; MIC (Strep. faecalis 1; [27]): > 100 µg/mL
